Measured values from patent publication US20260116868A1 (Arcus Biosciences, Inc., priority 2023, published 2026).
Where two headings read alike, the source gives them in different places.

Legend:
Cbl-b = target: T1, Cbl-b (Homo sapiens, UniProt Q13191); assay: Cbl-b probe displacement HTRF binding assay; settings: 0.4 nM Cbl-b, 150 nM BODIPY probe
T1 construct: biotin (biotinylated protein)
How it was run: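 Compound competes with BODIPY probe (150 nM) for biotinylated Cbl-b (0.4 nM) in HEPES/NaCl/Triton/TCEP/BSA buffer; 60 min preincubation, 15 min with probe, room temperature. Tb-streptavidin HTRF read; % displacement vs DMSO and no-protein controls, IC50 from four-parameter fit.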

Jurkat cells = assay: IL-2 secretion assay in Jurkat cells activated with CD3/CD28 T Cell Activator; format: cell-based; settings: Homo sapiens, 24 h, read-out: IL-2 Secretion (EC50)
Experimental: Certain compounds were also evaluated in an IL-2 secretion assay. On the day of the assay, a 16 point, 1:2 master serial dilution of each compound was prepared in Opti-MEM to span a final concentration range of 10 μM to 300 pM. Assays were set up in CORNING® tissue culture-treated 384-well microplates containing 60 nL of each dilution. Jurkat cells grown in RPMI-1640 supplemented with 10% FBS, 1% Glutamax, and 1% Pen/Strep were collected, resuspended in Opti-MEM. 50,000 cells/well and added to the compound plates. After a short spin (1200 rpm for 1 min), the plates were incubated at 37° C. for 1 hour. The cells were activated by adding 15 μL of IMMUNOCULT™ Human CD3/CD28 T Cell Activator (STEMCELL Technologies) diluted in Opti-MEM. After 24 h of incubation at 37° C., aliquots of culture supernatants were transferred to OptiPlate-384 (PerkinElmer) microplates. The level of IL-2 secretion in the supernatants was then determined using the IL-2 (human) AlphaLISA Detection Kit (PerkinElmer) according to the manufacturer's recommendations. The AlphaLISA signal was measured using an EnVision plate reader (PerkinElmer). EC50 values were determined by fitting the data to a standard 4-parameter logistic equation. See Table 7 for data for select compounds (IL-2 Secretion (EC50)).

[1] = Jurkat cells, CD3/CD28 T Cell Activator, IL-2 AlphaLISA

T1 sequence (Q13191 whole entry, species assumed): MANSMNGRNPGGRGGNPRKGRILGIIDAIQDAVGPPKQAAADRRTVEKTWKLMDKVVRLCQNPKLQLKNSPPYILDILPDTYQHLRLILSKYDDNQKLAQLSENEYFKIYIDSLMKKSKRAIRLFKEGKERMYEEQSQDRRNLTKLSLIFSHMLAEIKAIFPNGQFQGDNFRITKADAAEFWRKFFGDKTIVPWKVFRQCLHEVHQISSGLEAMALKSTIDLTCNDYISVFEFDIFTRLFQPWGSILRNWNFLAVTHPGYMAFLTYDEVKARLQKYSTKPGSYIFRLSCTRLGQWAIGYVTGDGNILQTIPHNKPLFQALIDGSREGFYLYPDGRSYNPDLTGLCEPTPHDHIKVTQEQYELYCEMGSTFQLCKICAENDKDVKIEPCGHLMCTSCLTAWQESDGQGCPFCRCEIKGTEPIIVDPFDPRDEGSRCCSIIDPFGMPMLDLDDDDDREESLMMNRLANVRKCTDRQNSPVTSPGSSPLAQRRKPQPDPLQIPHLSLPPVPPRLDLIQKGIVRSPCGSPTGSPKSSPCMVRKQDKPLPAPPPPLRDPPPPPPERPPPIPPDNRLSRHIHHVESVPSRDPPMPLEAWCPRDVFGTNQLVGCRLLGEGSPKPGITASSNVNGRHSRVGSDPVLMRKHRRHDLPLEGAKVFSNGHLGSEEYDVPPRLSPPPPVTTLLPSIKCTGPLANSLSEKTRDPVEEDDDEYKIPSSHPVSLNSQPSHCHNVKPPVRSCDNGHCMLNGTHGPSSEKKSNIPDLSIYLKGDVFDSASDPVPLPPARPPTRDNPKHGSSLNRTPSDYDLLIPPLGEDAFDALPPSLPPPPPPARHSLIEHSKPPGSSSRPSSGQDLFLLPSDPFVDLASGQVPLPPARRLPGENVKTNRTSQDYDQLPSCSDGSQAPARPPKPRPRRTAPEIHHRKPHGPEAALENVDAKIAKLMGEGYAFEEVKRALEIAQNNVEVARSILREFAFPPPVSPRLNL

Structure (SMILES)	IC50 (Cbl-b) [µM]	EC50 (Jurkat cells; [1]) [µM]	EC50 (Jurkat cells; Jurkat) [µM]
C[C@H]1CCCN(Cc2cc(C(=O)Nc3cc(-c4ccc(F)cc4-c4nncn4C)cc(C4CC4)n3)c(=O)n(CC3CCC3)c2)C1 [Example 62, 1-(cyclobutylmethyl)-N-[6-cyclopropyl-4-[4-fluoro-2-(4-methyl-1,2,4-triazol-3-yl)phenyl]pyridin-2-yl]-5-[[(3S)-3-methylpiperidin-1-yl]methyl]-2-oxopyridine-3-carboxamide]	< 0.1	< 0.1	
Cc1ccnnc1-c1cc(F)ccc1-c1cc(NC(=O)c2cc(CN3CCO[C@H](C)C3)cn(C3CC3)c2=O)nc(C2CC2)c1 [Example 74, 1-cyclopropyl-N-[6-cyclopropyl-4-[4-fluoro-2-(4-methylpyridazin-3-yl)phenyl]pyridin-2-yl]-5-[[(2R)-2-methylmorpholin-4-yl]methyl]-2-oxopyridine-3-carboxamide]	0.1 to 1	1 to 5	
Cn1cnnc1-c1cc(F)ccc1-c1cc(NC(=O)c2cc(CNC3(C)CCC3)cn(CC3CC3)c2=O)nc(C2CC2)c1 [Example 55]	< 0.1	< 0.1	
COCC1(NCc2cc(C(=O)Nc3cc(-c4ccc(C#N)cc4-c4nncn4C(F)F)cc(C4CC4)n3)c(=O)n(C3CC3)c2)CCC1 [Example 12, N-(4-{4-cyano-2-[4-(difluoromethyl)-4H-1,2,4-triazol-3-yl]phenyl}-6-cyclopropyl-2-pyridyl)-1-cyclopropyl-5-{[1-(methoxymethyl)cyclobutylamino]methyl}-2-oxo-1,2-dihydronicotinamide]	< 0.1	0.1 to 1	
COCCNCc1cc(C(=O)Nc2cc(-c3ccc(C#N)cc3-c3[nH]c(C)nc3C)cc(C3CC3)n2)c(=O)n(C2CC2)c1 [Example 54, N-{4-[4-cyano-2-(2,4-dimethyl-5-imidazolyl)phenyl]-6-cyclopropyl-2-pyridyl}-1-cyclopropyl-5-[(2-methoxyethylamino)methyl]-2-oxo-1,2-dihydronicotinamide]	< 0.1		0.1 to 1
COCCNCc1cc(C(=O)Nc2cc(-c3ccc(F)cc3-n3cc(CF)nn3)cc(C3CC3)n2)c(=O)n(C2CC2)c1 [Example 73, 1-Cyclopropyl-N-[6-cyclopropyl-4-[4-fluoro-2-[4-(fluoromethyl)triazol-1-yl]phenyl]pyridin-2-yl]-5-[(2-methoxyethylamino)methyl]-2-oxopyridine-3-carboxamide]	0.1 to 1	1 to 5	
Cn1cnnc1-c1cc(F)ccc1-c1cc(NC(=O)c2cc(C3CC3)cn(C3CC3)c2=O)nc(C2CC2)c1 [Example 29, N-{6-Cyclopropyl-4-[4-fluoro-2-(4-methyl-4H-1,2,4-triazol-3-yl)phenyl]-2-pyridyl}-1-cyclopropyl-5-cyclopropyl-2-oxo-1,2-dihydronicotinamide]	0.1 to 1	1 to 5	
C[C@H]1CCCN(Cc2cc(C(=O)Nc3cc(-c4ccc(F)cc4-c4nncn4C)cc(C4CC4)n3)c(=O)n(CC3CC3)c2)C1 [Example 56, N-[6-cyclopropyl-4-[4-fluoro-2-(4-methyl-1,2,4-triazol-3-yl)phenyl]pyridin-2-yl]-1-(cyclopropylmethyl)-5-[[(3S)-3-methylpiperidin-1-yl]methyl]-2-oxopyridine-3-carboxamide]	< 0.1	< 0.1	
CC1CC(c2cccc(NC(=O)c3cc(CN4CCC[C@H](C)C4)cn(CC4CC4)c3=O)c2)(c2nncn2C)C1 (mixture of isomers) [Example 78, 1-(cyclopropylmethyl)-N-[3-[3-methyl-1-(4-methyl-1,2,4-triazol-3-yl)cyclobutyl]phenyl]-5-[[(3S)-3-methylpiperidin-1-yl]methyl]-2-oxopyridine-3-carboxamide]	< 0.1	0.1 to 1	
COCCNCc1cc(C(=O)Nc2cc(-c3ccc(F)cc3-n3nncc3C)cc(C3CC3)n2)c(=O)n(C2CC2)c1 [Example 71, N-{6-cyclopropyl-4-[4-fluoro-2-(5-methyl-1H-1,2,3-triazol-1-yl)phenyl]-2-pyridyl}-1-cyclopropyl-5-[(2-methoxyethylamino)methyl]-2-oxo-1,2-dihydronicotinamide]	< 0.1	< 0.1	
CO[C@@H](C)CNCc1cc(C(=O)Nc2cc(-c3ccc(C#N)cc3C(=O)N3CC(F)(F)C3)cc(C3CC3)n2)c(=O)n(C2CC2)c1 [Example 95, N-(4-{4-cyano-2-[(3,3-difluoro-1-azetidinyl)carbonyl]phenyl}-6-cyclopropyl-2-pyridyl)-5-{[(S)-2-methoxypropylamino]methyl}-1-cyclopropyl-2-oxo-1,2-dihydronicotinamide]	< 0.1	< 0.1	

Now from value to compound, other results behind:

IC50 (Cbl-b) [µM]	EC50 (Jurkat cells; [1]) [µM]	Structure (SMILES)	EC50 (Jurkat cells; Jurkat) [µM]
< 0.1	0.1 to 1	C[C@H]1CCCN(Cc2cc(C(=O)Nc3cc(-c4ccc(C#N)cc4-c4nncn4C(F)F)cc(N)n3)c(=O)n(C3CC3)c2)C1 [Example 8, N-(6-amino-4-{4-cyano-2-[4-(difluoromethyl)-4H-1,2,4-triazol-3-yl]phenyl}-2-pyridyl)-5-{[(S)-3-methyl-1-piperidyl]methyl}-1-cyclopropyl-2-oxo-1,2-dihydronicotinamide]	
0.1 to 1	0.1 to 1	CO[C@H]1C[C@](c2cccc(NC(=O)c3cc(CN4CCC[C@H](C)C4)cn(C4CC4)c3=O)c2)(c2nncn2C)C1 [Example 81, 1-cyclopropyl-N-[3-[3-methoxy-1-(4-methyl-1,2,4-triazol-3-yl)cyclobutyl]phenyl]-5-[[(3S)-3-methylpiperidin-1-yl]methyl]-2-oxopyridine-3-carboxamide]	
< 0.1	1 to 5	CN(C)Cc1c[nH]c(=O)c(C(=O)Nc2cc(-c3ccc(F)cc3-c3nncn3C)cc(C3CC3)n2)c1 [Example 32, N-{6-Cyclopropyl-4-[4-fluoro-2-(4-methyl-4H-1,2,4-triazol-3-yl)phenyl]-2-pyridyl}-5-[(dimethylamino)methyl]-2-oxo-1,2-dihydronicotinamide]	
< 0.1	0.1 to 1	COCCNCc1cc(C(=O)Nc2cc(-c3ccc(F)cc3-n3nccc3C)cc(C3CC3)n2)c(=O)n(C2CC2)c1 [Example 70, 1-Cyclopropyl-N-[6-cyclopropyl-4-[4-fluoro-2-(5-methylpyrazol-1-yl)phenyl]pyridin-2-yl]-5-[(2-methoxyethylamino)methyl]-2-oxopyridine-3-carboxamide]	
< 0.1	< 0.1	CC1(NCc2cc(C(=O)Nc3cc(-c4ccc(C#N)cc4-c4nncn4C(F)F)cc(C4CC4)n3)c(=O)n(C3CC3)c2)CCC1 [Example 10, N-(4-{4-cyano-2-[4-(difluoromethyl)-4H-1,2,4-triazol-3-yl]phenyl}-6-cyclopropyl-2-pyridyl)-1-cyclopropyl-5-[(1-methylcyclobutylamino)methyl]-2-oxo-1,2-dihydronicotinamide]	
0.1 to 1	1 to 5	C[C@@H]1CN(Cc2cc(C(=O)Nc3cc(-c4ccc(C#N)cc4-c4nccn4C)cc(C4CC4)n3)c(=O)n(C3CC3)c2)CCO1 (single isomer, unassigned) [Example 36]	
< 0.1	0.1 to 1	Cc1ocnc1-c1cc(C#N)ccc1-c1cc(NC(=O)c2cc(CNC3(C)CCC3)cn(C3CC3)c2=O)nc(C2CC2)c1 [Example 53, N-{4-[4-cyano-2-(5-methyl-1,3-oxazol-4-yl)phenyl]-6-cyclopropyl-2-pyridyl}-1-cyclopropyl-5-[(1-methylcyclobutylamino)methyl]-2-oxo-1,2-dihydronicotinamide]	
< 0.1	0.1 to 1	CO[C@@H]1CCN(Cc2cc(C(=O)Nc3cc(-c4ccc(F)cc4-c4nncn4C)cc(C4CC4)n3)c(=O)n(C3CC3)c2)C1 [Example 22, N-{6-cyclopropyl-4-[4-fluoro-2-(4-methyl-4H-1,2,4-triazol-3-yl)phenyl]-2-pyridyl}-5-{[(R)-3-methoxy-1-pyrrolidinyl]methyl}-1-cyclopropyl-2-oxo-1,2-dihydronicotinamide]	
< 0.1	0.1 to 1	COCCNCc1cc(C(=O)Nc2cc(-c3ccc(C#N)cc3-c3ncoc3C)cc(C3CC3)n2)c(=O)n(CC2CC2)c1 [Example 64, N-{4-[4-cyano-2-(5-methyl-1,3-oxazol-4-yl)phenyl]-6-cyclopropyl-2-pyridyl}-1-(cyclopropylmethyl)-5-[(2-methoxyethylamino)methyl]-2-oxo-1,2-dihydronicotinamide]	
< 0.1	< 0.1	CC(C)CNCc1cc(C(=O)Nc2cc(-c3ccc(Cl)cc3C(=O)N3CC(F)(F)C3)cc(C3CC3)n2)c(=O)n(C)c1 [Example 106, N-[4-[4-chloro-2-(3,3-difluoroazetidine-1-carbonyl)phenyl]-6-cyclopropylpyridin-2-yl]-1-methyl-5-[(2-methylpropylamino)methyl]-2-oxopyridine-3-carboxamide]	
